Legend:
Assay type in all cases: in vitro ADME
CYP1A2 mRNA = CYP1A2 mRNA induction in cryopreserved human hepatocytes; conditions: 0.03-30 μM; for CYP1A2 mRNA Fold induction: human hepatocytes, 48 hours
Experimental: (§1) The induction potential of Compound A on CYP enzymes was assessed in cryopreserved human hepatocytes from three donors. Following treatment for with Compound A at concentrations of 0.03-30 μM for 48 hours, mRNA levels for CYP1A2, 2B6, 2C8, 2C9, 2C19, and 3A4 were determined by semiquantitative real-time polymerase chain reaction (PCR). Test article concentrations during 24-hour incubation were determined. The potential of Compound A to cause direct and time-dependent inhibition (TDI) of the activities of CYP1A2, 2B6, 2C8, 2C9, 2C19, 2D6, and 3A4 was evaluated in pooled human liver microsomes (HLM) at 0.2-15 μM. Probe substrate concentrations around Km were used for direction inhibition and initial TDI assays. For TDI assay, Compound A was pre-incubated with pooled HLM with and without NADPH for 30 minutes prior to incubation with a single concentration of probe substrate.

CYP2B6 mRNA = CYP2B6 mRNA induction in cryopreserved human hepatocytes; conditions: 0.03-30 μM; for CYP2B6 mRNA Fold induction: human hepatocytes, 48 hours
Experimental: as §1

CYP2C8 mRNA = CYP2C8 mRNA induction in cryopreserved human hepatocytes; conditions: for CYP2C8 mRNA Fold induction: human hepatocytes
[1] = test system: CYP1A2, 2B6, 2C8, 2C9, 2C19, 2D6, and 3A4; test: Direct and time-dependent inhibition of all CYPs tested in pooled human liver microsomes; conditions: HLM
Experimental: as §1

[2] = Metabolite profiling using human plasma, HLM and human hepatocytes; conditions: human plasma
Experimental: Metabolite profiling was conducted in incubations of Compound A (2 and 10 μM) with HLM (up to 60 min), human hepatocyte suspension (up to 240 min) and human plasma (up to 360 min). In addition, Compound A (2 μM) was incubated with recombinant human CYP enzymes CYP1A2, CYP2A6, CYP2B6, CYP2C8, CYP2C9, CYP2C19, CYP2D6, CYP2E1, CYP3A4 and CYP3A5.

OAT3 = target: T1, OAT3 (Homo sapiens, UniProt Q8TCC7); test: OAT3 uptake transporter inhibition in MDCKII or HEK293 cells; conditions: substrate E3S (1 μM)
T1 construct: expressed in transfected cells; host or cells: MDCKII or HEK293
T1 sequence (Q8TCC7 whole entry): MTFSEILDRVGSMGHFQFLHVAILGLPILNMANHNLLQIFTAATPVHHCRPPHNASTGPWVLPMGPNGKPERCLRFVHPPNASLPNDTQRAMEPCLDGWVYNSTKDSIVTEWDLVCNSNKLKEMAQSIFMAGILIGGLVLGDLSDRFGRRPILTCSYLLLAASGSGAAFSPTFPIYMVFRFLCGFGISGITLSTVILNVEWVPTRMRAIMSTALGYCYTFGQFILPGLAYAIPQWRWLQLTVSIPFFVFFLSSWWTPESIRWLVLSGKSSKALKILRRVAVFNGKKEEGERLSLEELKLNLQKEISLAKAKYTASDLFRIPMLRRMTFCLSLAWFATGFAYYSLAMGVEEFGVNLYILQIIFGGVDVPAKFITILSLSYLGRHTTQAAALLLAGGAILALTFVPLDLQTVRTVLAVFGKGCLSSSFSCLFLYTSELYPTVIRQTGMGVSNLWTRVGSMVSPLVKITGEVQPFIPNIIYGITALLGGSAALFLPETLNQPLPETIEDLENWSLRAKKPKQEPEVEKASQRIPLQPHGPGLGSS
Experimental: (§2) In addition, the inhibition potential against efflux transporters (P-glycoprotein (Pgp) and breast cancer resistance protein (BCRP)) and uptake transporters (MATE1, MATE2-K, OATP1B1, OATP1B3, OAT1, OAT3, and OCT2) was assessed using single transporter over-expressed cell monolayers (MDCK II or HEK293) or inside-out vesicles.
(§3) The potential of Compound A to inhibit Pgp or BCRP was tested for bidirectional transport of the probe substrates in Pgp or BCRP-expressed MDCKII and control monolayers at Compound A concentrations of 0.07-5 μM. Pgp and BCR inhibition were tested in inside-out membrane vesicles prepared from HEK293 overexpressing human Pgp and BCR at concentrations of 0.01-9 μM Compound A in the presence of 4 mM MgATP or MgAMP.

MATE1 = target: T2, MATE1 (Homo sapiens, UniProt Q96FL8); test: MATE1 uptake transporter inhibition in MDCKII or HEK293 cells
T2 construct: expressed in transfected cells; host or cells: MDCKII or HEK293
T2 sequence (Q96FL8 1-570): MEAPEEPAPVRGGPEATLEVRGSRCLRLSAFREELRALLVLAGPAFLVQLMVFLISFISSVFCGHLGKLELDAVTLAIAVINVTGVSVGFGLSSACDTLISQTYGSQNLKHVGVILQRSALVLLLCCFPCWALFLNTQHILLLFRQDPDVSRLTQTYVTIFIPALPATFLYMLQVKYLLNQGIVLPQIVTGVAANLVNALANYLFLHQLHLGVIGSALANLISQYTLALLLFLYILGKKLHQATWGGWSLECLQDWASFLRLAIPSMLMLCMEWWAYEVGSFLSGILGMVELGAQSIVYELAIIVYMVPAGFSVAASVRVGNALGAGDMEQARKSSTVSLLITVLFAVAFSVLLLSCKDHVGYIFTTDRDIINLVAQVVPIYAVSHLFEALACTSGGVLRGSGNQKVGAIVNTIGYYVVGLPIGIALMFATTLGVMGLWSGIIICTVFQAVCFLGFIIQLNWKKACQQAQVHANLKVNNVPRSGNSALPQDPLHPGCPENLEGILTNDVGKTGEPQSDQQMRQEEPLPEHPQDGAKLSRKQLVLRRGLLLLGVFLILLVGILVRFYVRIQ
Experimental: as §2, §3

OATP1B1 = target: T3, OATP1B1 (Homo sapiens, UniProt Q9Y6L6); test: OATP1B1 uptake transporter inhibition in MDCKII or HEK293 cells; set-up: expressed in transfected cells; host or cells: MDCKII or HEK293; conditions: substrate Rosuvastatin (1 μM)
T3 sequence (Q9Y6L6 1-691): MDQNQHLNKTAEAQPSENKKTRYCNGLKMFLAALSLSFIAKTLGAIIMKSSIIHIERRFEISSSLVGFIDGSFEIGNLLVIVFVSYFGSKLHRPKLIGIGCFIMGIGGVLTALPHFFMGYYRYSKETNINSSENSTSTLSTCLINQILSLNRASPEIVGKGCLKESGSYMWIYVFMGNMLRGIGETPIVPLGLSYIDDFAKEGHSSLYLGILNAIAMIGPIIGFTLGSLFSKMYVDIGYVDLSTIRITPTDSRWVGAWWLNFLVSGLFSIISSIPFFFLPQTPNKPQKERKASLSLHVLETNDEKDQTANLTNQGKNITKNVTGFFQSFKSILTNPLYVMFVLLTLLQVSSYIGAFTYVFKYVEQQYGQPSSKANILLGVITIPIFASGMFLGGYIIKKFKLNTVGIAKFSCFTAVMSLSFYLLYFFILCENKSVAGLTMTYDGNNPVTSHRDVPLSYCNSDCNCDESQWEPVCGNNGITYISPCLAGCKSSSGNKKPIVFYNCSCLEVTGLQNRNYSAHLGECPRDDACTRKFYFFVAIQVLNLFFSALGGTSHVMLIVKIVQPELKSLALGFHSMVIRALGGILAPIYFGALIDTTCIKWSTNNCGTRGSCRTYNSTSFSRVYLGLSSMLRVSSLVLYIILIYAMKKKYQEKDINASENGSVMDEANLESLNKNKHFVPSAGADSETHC
Experimental: as §2, §3

[3] = all three donors of human hepatocytes

CYP1A2 mRNA Fold induction (CYP1A2 mRNA; Donor 1): <2 Fold | CYP1A2 mRNA Fold induction (CYP1A2 mRNA; Donor 2): <2 Fold | CYP1A2 mRNA Fold induction (CYP1A2 mRNA; Donor 3): <2 Fold | Induction of CYP1A2 mRNA (CYP1A2 mRNA; [3]): did not induce | CYP2B6 mRNA Fold induction (CYP2B6 mRNA; Donor 1): <2 Fold | CYP2B6 mRNA Fold induction (CYP2B6 mRNA; Donor 2): <2 Fold | CYP2B6 mRNA Fold induction (CYP2B6 mRNA; Donor 3): <2 Fold | Induction of CYP2B6 mRNA (CYP2B6 mRNA; [3]): did not induce | CYP2C8 mRNA Fold induction (CYP2C8 mRNA; Donor 1, 0.03-30 μM, 48 hours): <2 Fold | CYP2C8 mRNA Fold induction (CYP2C8 mRNA; Donor 2, 0.03-30 μM, 48 hours): <2 Fold | CYP2C8 mRNA induction, % PC (CYP2C8 mRNA; Donor 3, % of positive control response, at 0.1 μM): 28 % PC | CYP2C8 mRNA Fold induction (CYP2C8 mRNA; Donor 3, maximal, at 0.1 μM): 3.1 Fold | Direct inhibition, maximal inhibition ([1]; all CYPs, up to 15 µM tested): ≤ 12% | TDI (time-dependent inhibition) ([1]; all CYPs, up to 15 µM tested): ≤ 15% | Major metabolic pathway [2]: hydrolysis (M825/1) | IC50 (OAT3): > 3.75 µM | IC50 (MATE1; MATE1, substrate Metformin (10 μM)): 3.05 µM | EC50 (MATE1; MATE1 inhibition): 3.05 µM | inhibition at 3.75 µM (MATE1; MDCKII or HEK293 cells stably expressing MATE1, probe Metformin (10 μM), at a concentration of 3.75 μM): 52% | IC50 (OATP1B1): > 3.75 µM
Compound: COc1cc(O[C@H]2C(C)(C)[C@H](NC(=O)c3ccc(N4CCC(CN5CCN(c6ccc(C(=O)N[C@H]7CCC(=O)NC7=O)c(F)c6)CC5)CC4)cc3)C2(C)C)ccc1C#N [Compound A, 4-(4-((1-(4-(((1R,3R)-3-(4-cyano-3-methoxyphenoxy)-2,2,4,4-tetramethylcyclobutyl)carbamoyl)phenyl)piperidin-4-yl)methyl)piperazin-1-yl)-N—((S)-2,6-dioxopiperidin-3-yl)-2-fluorobenzamide]
Direct or time-dependent inhibition ([1]; any of the CYP isoforms, 0.2-15 µM): no direct or time-dependent inhibition was observed
